# Data published in patent US20250282784A1, “CYTOCHROME BD OXIDASE INHIBITORS AND USES THEREOF” (UNIVERSITY OF NOTRE DAME DU LAC, priority 2022, published 2025).
# Assays:
# [1] = test system: M. abscessus ATCC 19977T deficient for the expression of the cyt-bcc:aa3 (ΔqcrCAB); assay: ATP levels in M. abscessus deficient for cyt-bcc:aa3 (ΔqcrCAB), 2-fold dose-response; type: cell-based, Mycobacterium abscessus; settings: Mycobacteroides abscessus, read-out: ATP IC50 ΔgcrCAB
# Description: (§1) The compounds described and provided herein were evaluated for their potential to inhibit Cytochrome BD oxidase in Mycobacterium abscessus. M. abscessus ATCC 19977T wild-type (WT) and deficient for the expression of the cyt-bcc:aa3 (ΔqcrCAB) were treated with a 2-fold dose-response (starting from 40 μM) of the drugs. ATP levels were measured after 6 to 15 hours of incubation using a commercial kit.
# (§2) M. abscessus ATCC 19977T wild-type (WT) and deficient for the expression of the cyt-bcc:aa3 (ΔqcrCAB) were treated with a 2-fold dose-response (starting from 40 μM) of the drugs. ATP levels were measured after 6 to 15 hours of incubation using a commercial kit.
# [2] = test system: M. abscessus ATCC 19977T wild-type (WT); assay: ATP levels in M. abscessus wild-type, 2-fold dose-response; type: cell-based, Mycobacterium abscessus; settings: Mycobacteroides abscessus, read-out: ATP IC50 WT
# Description: as §1, §2
# M. abscessus = assay: Killing of M. abscessus by clofazimine with or without Compound 12 (FIG. 1)
smiles,measurement,setting,value
"Cc1cc2nc(NCCc3ccc(C(F)(F)F)cc3)c3ccccc3n2n1 [Compound 1, 2-methyl-N-(4-(trifluoromethyl)phenethyl) pyrazolo[1,5-a]quinazolin-5-amine]",IC50,[1],12.1 µM
same,IC50,[2],> 40 µM
"Cc1cc2nc(NC3CC(C)(C)CC(C)(C)C3)c3ccccc3n2n1 [Compound 2, 2-methyl-N-(3,3,5,5-tetramethylcyclohexyl) pyrazolo[1,5-a] quinazolin-5-amine]",IC50,[1],> 40 µM
same,IC50,[2],> 40 µM
"Cc1cc2nc(NC3CCC(F)(F)CC3)c3ccccc3n2n1 [Compound 3, N-(4,4-difluorocyclohexyl)-2-methylpyrazolo[1,5-a] quinazolin-5-amine]",IC50,[1],20 µM
same,IC50,[2],> 40 µM
"Cc1cc2nc(NC34CC5CC(CC(C5)C3)C4)c3ccccc3n2n1 [Compound 4, N-((3s,5s,7s)-adamantan-1-yl)-2-methylpyrazolo[1,5-a] quinazolin-5-amine]",IC50,[1],9.73 µM
same,IC50,[2],> 40 µM
"Cc1cc2nc(NC3CCCCC3)c3ccccc3n2n1 [Compound 5, N-cyclohexyl-2-methylpyrazolo[1,5-a] quinazolin-5-amine]",IC50,[1],6.89 µM
same,IC50,[2],> 40 µM
"Cc1cc2nc(NCc3ccc(N4CCN(c5ccc(F)cc5)CC4)cc3)c3ccccc3n2n1 [Compound 6, N-(4-(4-(4-fluorophenyl)piperazin-1-yl)benzyl)-2-methylpyrazolo[1,5-a] quinazolin-5-amine]",IC50,[1],> 40 µM
same,IC50,[2],> 40 µM
"Cc1cc2nc(Cl)c3ccccc3n2n1 [Compound 7, S-chloro-2-methylpyrazolo[1,5-a] quinazoline]",IC50,[1],> 40 µM
same,IC50,[2],> 40 µM
"Cc1cc2nc(NC3CCCC3)c3ccccc3n2n1 [Compound 8, N-cyclopentyl-2-methylpyrazolo[1,5-a] quinazolin-5-amine]",IC50,[1],15.3 µM
same,IC50,[2],> 40 µM
"Cc1cc2nc(NC3CCCCCCC3)c3ccccc3n2n1 [Compound 9, N-cyclooctyl-2-methylpyrazolo[1,5-a] quinazolin-5-amine]",IC50,[1],25.9 µM
same,IC50,[2],> 40 µM
"Cc1cc2nc(NC3CCCCCC3)c3ccccc3n2n1 [Compound 12, N-cycloheptyl-2-methylpyrazolo[1,5-a] quinazolin-5-amine]",IC50,[1],17.4 µM
same,IC50,[2],> 40 µM
same,Synergy with clofazimine to kill M. abscessus,"M. abscessus; combination of Compound 12 with clofazimine, FIG. 1",synergizes with clofazimine to kill M. abscessus
"Cc1cc2nc(Nc3ccc(Oc4ccc(C(F)(F)F)cc4)cc3)c3ccccc3n2n1 [Compound 14, 2-methyl-N-(4-(4-(trifluoromethyl)phenoxy)phenyl)pyrazolo[1,5-a] quinazolin-5-amine]",IC50,[1],> 40 µM
same,IC50,[2],> 40 µM
"Cc1cc2nc(N[C@H]3CCC[C@@H](c4ccc(C(F)(F)F)cc4)C3)c3ccccc3n2n1 [Compound 15A, 2-methyl-N-((1S,3R)-3-(4-(trifluoromethyl)phenyl)cyclohexyl)pyrazolo[1,5-a] quinazolin-5-amine]",IC50,[1],6.6 µM
same,IC50,[2],> 40 µM
"FC(F)(F)c1ccc([C@@H]2CCC[C@H](Nc3nc4ccnn4c4ccccc34)C2)cc1 [Compound 16A, N-((1S,3R)-3-(4-(trifluoromethyl)phenyl)cyclohexyl)pyrazolo[1,5-a] quinazolin-5-amine]",IC50,[1],32.8 µM
same,IC50,[2],> 40 µM
"Cc1cc2nc(NC3CC4(CCC4)C3)c3ccccc3n2n1 [Compound 17, 2-methyl-N-(spiro[3.3]heptan-2-yl)pyrazolo[1,5-a] quinazolin-5-amine]",IC50,[1],3.2 µM
same,IC50,[2],> 40 µM
"Cc1cc2nc(NC3CCC3)c3ccccc3n2n1 [Compound 18, N-cyclobutyl-2-methylpyrazolo[1,5-a] quinazolin-5-amine]",IC50,[1],9.7 µM
same,IC50,[2],> 40 µM
"Cc1cc2nc(N[C@@H]3C[C@H]3c3ccc(F)c(F)c3)c3ccccc3n2n1 [Compound 19A, N-((1R,2S)-2-(3,4-difluorophenyl)cyclopropyl)-2-methylpyrazolo[1,5-a] quinazolin-5-amine]",IC50,[1],18.7 µM
same,IC50,[2],> 40 µM
"Cc1cc2nc(NCC3CCCCC3)c3ccccc3n2n1 [Compound 21, N-(cyclohexylmethyl)-2-methylpyrazolo[1,5-a] quinazolin-5-amine]",IC50,[1],12.1 µM
same,IC50,[2],> 40 µM
"Cc1cc2nc(NCC3CC3)c3ccccc3n2n1 [Compound 22, N-(cyclopropylmethyl)-2-methylpyrazolo[1,5-a] quinazolin-5-amine]",IC50,[1],19.6 µM
same,IC50,[2],> 40 µM
"Cc1cc2nc(NC3CCC(C(F)(F)F)CC3)c3ccccc3n2n1 (centres unmarked) [Compound 23, 2-methyl-N-(4-(trifluoromethyl)cyclohexyl) pyrazolo[1,5-a] quinazolin-5-amine]",IC50,[1],9 µM
same,IC50,[2],> 40 µM
"Cc1cc2nc(NC3CCC(C)CC3)c3ccccc3n2n1 (centres unmarked) [Compound 24, 2-methyl-N-(4-methylcyclohexyl)pyrazolo [1,5-a]quinazolin-5-amine]",IC50,[1],9.2 µM
same,IC50,[2],> 40 µM
Cc1cc2nc(NC3CCC(C(C)C)CC3)c3ccccc3n2n1 (centres unmarked) [Compound 25],IC50,[1],2.6 µM
same,IC50,[2],> 40 µM
"Cc1cc2nc(NC3CCC(C(C)(C)C)CC3)c3ccccc3n2n1 (centres unmarked) [Compound 26, N-(4-(tert-butyl)cyclohexyl)-2-methylpyrazolo[1,5-a] quinazolin-5-amine]",IC50,[1],4.4 µM
same,IC50,[2],> 40 µM
"CC(C)/N=c1\cc2n(-c3ccc(Cl)cc3)c3ccccc3nc-2cc1Nc1ccc(Cl)cc1 [clofazimine, reference compound]","Type of activity of clofazimine against M. abscessus, tested alone",M. abscessus; clofazimine alone,bacteriostatic
same,Type of activity of clofazimine against M. abscessus in the presence of Compound 12,M. abscessus; in the presence of Compound 12,bactericidal
